# According to the supplement of paper PMC10307832:
# Key:
# Assay in all cases: relative viability (nuclei count vs DMSO), 5 days (fraction); higher = more cells survive
# [1] = compound: C1COCCN1C2=CC(=O)C3=C(O2)C(=CC=C3)C4=CC=CC5=C4SC6=CC=CC=C56
# Procedure, shortened: (§1)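 Lung cancer cell lines received five library-drug doses (not always all listed) spaced by √10, pinned on vehicle-anchored 1536-well plates after an overnight stay at 37 °C. Five days later, with no medium change, nuclei were Hoechst-stained, imaged at 4× and counted with MetaXpress. Viability is treated-well nuclei relative to vehicle-well nuclei, as a median across plates. Passing plates had control CV below 25% and at least one doubling.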
# [2] = compound: O=c1cc(-c2cccc3c2Sc2ccccc2S3)oc(N2CCOCC2)c1
# Procedure, shortened: as §1
# Zibotentan = compound: COc1nc(C)cnc1NS(=O)(=O)c1cccnc1-c1ccc(-c2nnco2)cc1 [Zibotentan]
# Procedure, shortened: as §1
# [3] = compound: CCN(CC)CCCCNc1ncc2cc(-c3cc(OC)cc(OC)c3)c(NC(=O)NC(C)(C)C)nc2n1
# Procedure, shortened: as §1
# PRIMA-1MET = compound: COCC1(CO)C(=O)C2CCN1CC2 [PRIMA-1MET]
# Procedure, shortened: as §1
Cell Line,relative viability ([1]; 0.01 µM),relative viability ([1]; 0.03162 µM),relative viability ([1]; 0.1 µM),relative viability ([1]; 0.3162 µM),relative viability ([1]; 1 µM),relative viability ([2]; 0.08 µM),relative viability ([2]; 0.253 µM),relative viability ([2]; 0.8 µM),relative viability ([2]; 8 µM),relative viability (Zibotentan; 0.08 µM),relative viability (Zibotentan; 0.253 µM),relative viability (Zibotentan; 0.8 µM),relative viability (Zibotentan; 2.53 µM),relative viability ([3]; 0.01 µM),relative viability ([3]; 0.03162 µM),relative viability ([3]; 0.1 µM),relative viability ([3]; 0.3162 µM),relative viability ([3]; 1 µM),relative viability (PRIMA-1MET; 0.2 µM),relative viability (PRIMA-1MET; 0.6325 µM),relative viability (PRIMA-1MET; 2 µM),relative viability (PRIMA-1MET; 6.325 µM),relative viability (PRIMA-1MET; 20 µM),relative viability ([2]; 2.53 µM)
NCI-H1734,0.977,1.01,0.883,0.997,0.964,0.98,1.13,1.1,1.13,1.04,0.884,1.02,1,0.949,1.1,1.09,1.03,0.85,1.03,0.75,0.734,0.945,0.0584,
NCI-H1755,1.03,1.01,0.986,0.994,0.985,0.96,1.03,1.05,1.05,0.972,0.987,0.926,0.977,1.04,1.05,1.08,1.1,1.01,1.04,0.928,0.85,1.07,0.999,1.06
NCI-H1792,0.939,0.99,0.908,0.91,0.868,0.904,1.06,0.783,0.863,0.998,0.763,0.879,0.943,0.979,0.976,1.04,1.25,0.521,0.923,0.804,0.677,0.924,0.778,0.864
NCI-H1793,0.888,0.786,0.918,0.896,0.806,0.819,1.3,0.857,0.805,0.938,0.862,0.801,1.03,0.903,0.933,1.03,0.944,0.683,0.936,0.815,,1.08,0.923,0.771
NCI-H1915,1.04,1.08,1.06,0.995,1.05,0.988,1.02,1.13,1.04,1.06,0.986,0.973,1.01,1.08,1.04,1.02,1.12,1.01,0.954,0.859,0.734,1,0.957,0.993
NCI-H1944,1,1.01,1.02,0.997,0.949,0.938,1.09,0.905,1.09,1.07,0.94,0.874,1.01,0.945,0.875,1.06,0.985,0.894,1.06,0.782,0.695,0.927,0.924,0.752
NCI-H1975,0.941,0.985,0.866,0.97,1.04,0.907,1.12,0.836,0.966,0.966,0.882,0.892,1.01,0.993,0.87,1.01,1.2,0.882,1.05,0.937,0.847,1.04,0.753,0.936
NCI-H1993,0.882,0.931,1.1,0.995,0.84,0.84,1.05,0.846,0.826,0.966,0.871,0.913,1.04,0.976,0.924,1.05,1.45,0.901,1,0.767,0.824,0.92,0.955,0.824
NCI-H2009,1.02,0.995,1.01,0.982,0.927,0.987,1.03,0.962,0.869,1,0.968,1.07,1.06,1.05,1.06,1.04,1.07,0.979,0.944,0.976,1.03,1.04,0.0681,0.93
NCI-H2023,1.05,1.1,1.04,0.973,0.908,0.923,1.12,0.972,0.888,1.06,0.794,0.899,1,0.914,1.09,1.16,1.05,0.854,1.3,0.888,0.955,0.97,0.826,0.865
NCI-H2085,0.986,0.961,0.97,0.974,0.966,0.95,1.1,1.05,0.892,1.01,0.954,1.05,1.03,1.03,0.987,0.99,1.02,0.972,1.06,1,0.791,1.05,0.524,0.96
NCI-H2087,1.11,1.08,1.01,0.977,1.05,0.958,1.15,1.12,1.13,0.934,1.02,1.16,1.05,1.02,0.966,1.16,1.03,0.942,0.687,0.883,0.912,1.17,0.773,0.835
NCI-H2126,0.972,1,1,1.01,0.98,0.986,1.03,0.862,1.03,1.01,0.965,0.913,1.05,1.02,0.992,1.06,1.07,0.983,1.03,0.978,0.901,1.03,0.978,0.932
NCI-H2170,0.969,1.02,0.973,0.947,0.965,0.946,1.05,1,0.991,0.997,0.992,0.968,1,1.08,0.976,1.02,1.05,1,1.02,0.848,0.971,1.07,0.946,0.911
